The values that follow come from ChEMBL document CHEMBL1201862, “PubChem BioAssay data set” (2004).

Holding throughout (assay): inhibition of tumour cell growth, NCI panel, 48 h
The test system of test [1] is 786-0.
Test [2] deals with CCRF-CEM.
The subject of test [3] is HCT-116.
Test [4] concerns IGROV-1.
In test [5] the test system is K562.
In test [6] the test system is LOX IMVI.
In test [7] the test system is M14.
Test [8] has as its system MDA-MB-231.
For test [9], the system named is MDA-N.
For test [10], the system named is MOLT-4.
Test [11] relates to NCI-H226.
Test [12] deals with NCI-H460.
For test [13], the system named is OVCAR-5.
The test system of test [14] is RXF 393.
The subject of test [15] is SK-MEL-5.
The subject of test [16] is SNB-19.
Test [17] concerns SNB-75.
Test [18] concerns SR.
The subject of test [19] is SW-620.
Test [20] relates to UACC-257.

Each structure is given as a SMILES string.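 Dose response: 5 concentrations. Exposure: 48 h. Format: 96-well plates. Endpoint: linear interpolation; highest concentration if not reached. The concentration for 50% growth inhibition is given as GI50.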 Activity calls are given as the source filed them. Rule as the data show it: active = GI50 up to about 1.1 µM and inactive = higher.

Take `COc1cc(NCc2ccc3nc(-c4ccccc4)c(N)nc3c2)cc(OC)c1OC`: the GI50 in [1] is 35.6 µM (inactive); in [2] it was 31.6 µM (inactive); in [3] it was 18.1 µM (inactive); in test [4] it was 43.6 µM (inactive); in test [5] it was 41 µM (inactive); in [6], 41.9 µM (inactive). The GI50 in [7] is 18.4 µM (inactive); in test [8], 36 µM (inactive); in [9], 27.5 µM (inactive); in test [10], 23.3 µM (inactive); in [11] it was 27.5 µM (inactive); in test [12], 31.4 µM (inactive). The GI50 in test [13] is > 100 µM (inactive); in [14], 16 µM (inactive); in [15], 15.3 µM (inactive); in test [16], 46.2 µM (inactive); in test [17], 19.1 µM (inactive); in test [18] it was 37.8 µM (inactive). Also, the GI50 in test [19] was 48.5 µM (inactive); in [20] it was 22.7 µM (inactive).
On to `O=C(c1ccccc1)c1ccc2[nH]c(-c3c(Cl)c(Cl)c(Cl)c(Cl)c3C(=O)Nc3ccco3)nc2c1`, for which the GI50 in [1] was 96.2 µM (inactive); in test [2] it was 26.9 µM (inactive); in test [3], 34 µM (inactive); in test [4] it was 41.1 µM (inactive); in test [5], 16.6 µM (inactive); in test [6], 38.1 µM (inactive). Besides, the GI50 in [7] is 36.7 µM (inactive); in test [8], 34.4 µM (inactive); in test [9], 15.3 µM (inactive); in [10] it was 18.6 µM (inactive); in test [11], 54.2 µM (inactive); in test [12], 33.5 µM (inactive). Also, the GI50 in test [13] was > 100 µM (inactive); in [14] it was 41.8 µM (inactive); in test [15], 28.4 µM (inactive); in test [16], 99.8 µM (inactive); in test [17], > 100 µM (inactive); in [18], 12.6 µM (inactive). Besides, the GI50 in [19] was 37.8 µM (inactive); in test [20], 45.7 µM (inactive).
As to `C/C=C/[C@@H]1O[C@H](CC#C[Si](C)(C)C)[C@@]2(C=O)C(C)=CC[C@H](C(C)C)[C@@H]12`, the GI50 in test [1] is 13.7 µM (inactive); in test [2], 2.41 µM (inactive); in test [3] it was 18.2 µM (inactive); in test [4], 2.82 µM (inactive); in [5], 14.7 µM (inactive); in test [6], 4.5 µM (inactive). Also, the GI50 in test [7] is 18.5 µM (inactive); in [8], 17.3 µM (inactive); in test [9], 19.4 µM (inactive); in [10] it was 1.93 µM (inactive); in test [11], 20.3 µM (inactive); in [12], 17.1 µM (inactive). Moreover, the GI50 was 21 µM (inactive) in test [13]; 18 µM (inactive) in test [14]; 17.6 µM (inactive) in [15]; 23.8 µM (inactive) in test [16]; 21.6 µM (inactive) in [17]; 2.44 µM (inactive) in test [18]. Besides, the GI50 in test [19] was 23.2 µM (inactive); in test [20] it was 12.9 µM (inactive).
For the molecule `Cc1ccc(N2C3=C(CC4=C2CC(C)(C)CC4=O)C(=O)CC(C)(C)C3)cc1`, the GI50 in test [1], in test [2], in test [3], in [4], in test [5] and in [6] was > 100 µM (inactive) in each case. In addition, the GI50 in test [7], in [8], in [9], in [10], in [11] and in [12] was > 100 µM (inactive) each time. The GI50 in test [13] was > 100 µM (inactive); in test [14], > 100 µM (inactive); in test [15] it was > 100 µM (inactive); in test [16] it was > 100 µM (inactive); in test [17] it was 27.6 µM (inactive); in test [18] it was > 100 µM (inactive). Further, the GI50 in test [19] and in [20] was > 100 µM (inactive) in each case.
With `COc1ccc(C(=O)c2ccc(-n3c4ccccc4c4ccc5c(c43)C(=O)C=CC5=O)cc2)cc1`, the GI50 is 0.586 µM (active) in test [1]; 0.367 µM (active) in test [2]; 0.92 µM (active) in test [3]; 2.61 µM (inactive) in [4]; 0.676 µM (active) in test [5]; 1.25 µM (inactive) in test [6]. The GI50 in test [7] is 2.53 µM (inactive); in test [8], 1.94 µM (inactive); in test [9] it was 2.72 µM (inactive); in [10], 0.348 µM (active); in [11], 17.3 µM (inactive); in test [12] it was 4.61 µM (inactive). For the same molecule, the GI50 in test [13] was 19.5 µM (inactive); in [14], 0.845 µM (active); in test [15] it was 4.27 µM (inactive); in test [16] it was 4.19 µM (inactive); in test [17], 3.66 µM (inactive); in test [18], 1.32 µM (inactive). Moreover, the GI50 is 1 µM (active) in test [19] and 2.54 µM (inactive) in test [20].
Take `CCN(CC)C(=S)N/N=C(/c1ccccc1)c1ccccn1`: the GI50 in [1] is 0.145 µM (active); in [2], 0.024 µM (active); in test [3], 0.0454 µM (active); in test [4], 0.195 µM (active); in test [5], 0.185 µM (active); in test [6], 0.2 µM (active). Also, the GI50 in test [7] is 0.0618 µM (active); in test [8], 0.0265 µM (active); in [9], 1.07 µM (active); in [10] it was < 0.0507 µM (active); in [11], 1.66 µM (inactive); in test [12], 0.0783 µM (active). The GI50 in [13] was 0.238 µM (active); in test [14] it was 0.277 µM (active); in test [15], 0.209 µM (active); in test [16] it was 2.84 µM (inactive); in test [17], 0.875 µM (active); in test [18], 0.106 µM (active). The GI50 is 0.121 µM (active) in test [19] and 0.107 µM (active) in test [20].
Take `CCOC1CCN(C(=O)c2ccccc2)O1` (stereo not given): the GI50 in test [1], in test [2], in [3], in test [4], in [5] and in test [6] was > 10 µM (inactive) throughout. In addition, the GI50 in [7], in test [8], in test [9], in test [10], in test [11] and in [12] was > 10 µM (inactive) in each case. For the same molecule, the GI50 in test [13], in [14], in [15], in test [16], in test [17] and in test [18] was > 10 µM (inactive) each time. Besides, the GI50 in [19] and in [20] was > 10 µM (inactive) throughout.
On to `Cc1cccc(CP(Cc2cccc(C)c2)CC2(Cp3c4ccccc4c4ccccc43)COC2)c1`, for which the GI50 is 1.53 µM (inactive) in test [1]; 0.406 µM (active) in [2]; 0.252 µM (active) in test [3]; 2.3 µM (inactive) in test [4]; 1.33 µM (inactive) in test [5]; 1.42 µM (inactive) in test [6]. For the same molecule, the GI50 in test [7] was 3.97 µM (inactive); in test [8] it was 1.3 µM (inactive); in test [9], 6.32 µM (inactive); in test [10] it was 0.662 µM (active); in [11] it was 4.11 µM (inactive); in test [12], 1.63 µM (inactive). Besides, the GI50 in [13] is > 100 µM (inactive); in [14], > 20.3 µM (inactive); in test [15] it was 2.55 µM (inactive); in [16] it was 5.96 µM (inactive); in [17], 0.501 µM (active); in [18] it was 1.15 µM (inactive). Also, the GI50 in test [19] was 10.3 µM (inactive); in test [20] it was 8.97 µM (inactive).
Consider `COC(=O)CC1C2CC3C(C2=O)C13` (stereo not given), for which the GI50 in test [1], in test [2], in test [3], in test [4], in test [5] and in [6] was > 100 µM (inactive) each time. Also, the GI50 in test [7], in [8], in test [9], in [10], in [11] and in [12] was > 100 µM (inactive) each time. Besides, the GI50 was > 100 µM (inactive) in test [13]; > 100 µM (inactive) in [14]; > 100 µM (inactive) in [15]; > 100 µM (inactive) in test [16]; 58.1 µM (inactive) in test [17]; > 100 µM (inactive) in test [18]. The GI50 in test [19] and in test [20] was > 100 µM (inactive) each time.
Regarding `O=C(CSc1nc2ccccc2c(=O)n1-c1ccccc1)N/N=C1\C(=O)Nc2ccc(Br)cc21`, the GI50 is 1.95 µM (inactive) in test [1]; 5.62 µM (inactive) in [2]; 2.26 µM (inactive) in [3]; 2.14 µM (inactive) in test [4]; 3.2 µM (inactive) in test [5]; 3.33 µM (inactive) in [6]. Moreover, the GI50 in test [7] is 2.4 µM (inactive); in test [8], 1.65 µM (inactive); in test [9], 3.01 µM (inactive); in test [10], 3.33 µM (inactive); in test [11], 12.1 µM (inactive); in [12], 4.92 µM (inactive). For the same molecule, the GI50 was 2.92 µM (inactive) in test [13]; 2.62 µM (inactive) in test [14]; 2.58 µM (inactive) in test [15]; 3.03 µM (inactive) in test [16]; 3.01 µM (inactive) in test [17]; 15.6 µM (inactive) in test [18]. Further, the GI50 was 3.37 µM (inactive) in [19] and 5.94 µM (inactive) in [20].
